Data taken from patent US20160168186A1, “Method of Treating Dengue Fever” (RIBOSCIENCE LLC, priority 2011, published 2016).
Like-named read-outs stand apart in the source and are kept apart here.

How the values were obtained:
[1] = test system: H241: dengue virus serotype 4; test: Dendritic Cells Infection Assay (viral RNA by real time PCR); assay type: cell-based; conditions: Dendritic cell, human primary immature monocyte derived dendritic cells, MOI 2, 24 h, dengue RNA relative to 18S rRNA
Method: Cryopreserved human immature monocyte derived Dendritic Cells (iDC) from individual donors were obtained from Stemcell Technologies (CAT# PB-DC001F). iDC were counted and incubated at a concentration of 15,000 cells/well (96 well plate) in RPMI 1640 media containing 10% (v/v) fetal bovine serum (FBS), 1% (v/v) penicillin/streptomycin (Invitrogen™) for 48 h at 37° C. in a 90% humidified, 5% CO2 atmosphere prior to the start of the experiment.
In a 96 well flat-bottom plate, 15000 iDC from individual donors were infected with dengue virus at a multiplicity of infection (MOI) of 2 in a volume of 50 μl for 2 h. After Infection iDCs were washed and cultured in complete RPMI media in the presence of serially diluted compounds. Each virus/drug combination was tested either in duplicate or triplicate (Depending on the availability of iDC from individual donors). Plates were incubated for 24 h at 37° C. in a 90% humidified, 5% CO2 atmosphere. After 24 h cells were washed and cellular RNA were isolated. Viral RNA and endogenous 18S rRNA control (Applied Bio Systems) was quantified by a real time PCR assay. The viability of mock-infected and infected iDC were monitored at described time points using a CellTiter Glo® (promega) assay according to manufacturer's recommendation.
Cellular RNA was isolated by PerfectPure™ RNA 96 cell kit (5 PRIME) according to manufacturer's recommendation. Transcriptor First Strand cDNA Synthesis Kit (Roche) was used to generate cDNA using random hexamer primers. […] First ΔCt was calculated by subtracting the 18S rRNA CT value from the dengue RNA CT value. ΔCts from duplicate taqman assay were averaged. […] Relative quantification was calculated using the following formula. Relative quantification=2^−averageΔΔCT. […]

dengue [2] = conditions: cited from earlier work
dengue [3] = conditions: mouse model; cited from earlier work
dengue [4] = conditions: by inhibiting the dengue 2′-O-methyltransferase NS5 domain; cited from earlier work

In the case of `[N-]=[N+]=N[C@]1(COP(=O)(N[C@@H](Cc2ccccc2)C(=O)OCc2ccccc2)Oc2cccc3ccccc23)O[C@@H](n2ccc(=O)[nH]c2=O)[C@H](O)[C@@H]1O` (stereo partly drawn) [Compound I-9, (S)-2-[[(2R,3S,4R,5R)-2-Azido-5-(2,4-dioxo-3,4-dihydro-2H-pyrimidin-1-yl)-3,4-dihydroxy-tetrahydro-furan-2-ylmethoxy]-(naphthalen-1-yloxy)-phosphorylamino]-3-phenyl-propionic acid benzyl ester], the IC50 [1] is reported as 16 µM.

Compound `CCOC(=O)[C@H](Cc1ccccc1)NP(=O)(OC[C@@]1(N=[N+]=[N-])O[C@@H](n2ccc(=O)[nH]c2=O)[C@H](O)[C@@H]1O)Oc1cccc2ccccc12` (stereo partly drawn) [Compound I-10, (S)-2-[[(2R,3S,4R,5R)-2-Azido-5-(2,4-dioxo-3,4-dihydro-2H-pyrimidin-1-yl)-3,4-dihydroxy-tetrahydro-furan-2-ylmethoxy]-(naphthalen-1-yloxy)-phosphorylamino]-3-phenyl-propionic acid ethyl ester] has an IC50 [1] of 15 µM.

For `C[C@H](NP(=O)(OC[C@@]1(N=[N+]=[N-])O[C@@H](n2cnc3c(N)ncnc32)[C@H](O)[C@@H]1O)Oc1ccccc1)C(=O)OCc1ccccc1` (stereo partly drawn) [Compound I-2, (S)-2-{[(2R,3S,4R,5R)-5-(6-Amino-purin-9-yl)-2-azido-3,4-dihydroxy-tetrahydro-furan-2-ylmethoxy]-phenoxy-phosphorylamino}-propionic acid benzyl ester], the IC50 [1] was 1.9 µM.

In the case of `NC(=O)c1ncn([C@@H]2O[C@H](CO)[C@@H](O)[C@H]2O)n1` [Ribavirin], the adverse effects (dengue [2]; mouse model or rhesus monkey model, text does not say which) is given as “induced anemia and thrombocytosis”, the protection against dengue (dengue [2]; rhesus monkey model) is given as “did not show protection” and the protection against dengue (dengue [3]) is given as “did not show protection”. The “activity against dengue in tissue culture” value (dengue [4]) was “works against dengue in tissue culture”.
